Test results published in patent US20110213028A1, “FATTY ACID MYCOPHENOLATE DERIVATIVES AND THEIR USES” (CATABASIS PHARMACEUTICALS, INC., priority 2010, published 2011).

Legend:
IL-1β = assay: Effect on IL-1β expression in LPS-stimulated RAW 264.7 macrophages; assay type: cell-based; details: RAW 264.7 mouse macrophages, dosed at 50 μM and 100 μM, 100 ng/ml LPS stimulation, FIG. 1
Procedure: RAW264.7 macrophages were seeded at a density of 100,000 cells/well in a 96-well plate in DMEM supplemented with 10% FBS and Penn/strep. 16 hours later, medium was aspirated and replaced with 90 μL/well of serum-free DMEM. Test compounds were brought up in 100% EtOH to a concentration of 100 mM and then diluted 1:100 in 100% FBS for a stock solution consisting of 1mM compound and 1% EtOH. These stock solutions were then diluted 1:10 in FBS supplemented with 1% EtOH to generate a 100 μM of the test compounds. 10 μL was then added to the RAW246.7 cells to generate final concentrations consisting of 10 μM of the fatty acid mycophenolate conjugate, along with vehicle only control. The compounds were allowed to pre-incubate for 2 hours before stimulation of 100 ng/ml LPS (10 μL of 1 μg/ml LPS was added to each well). Following 3 hours of LPS stimulation, cells were washed once in 1 ×PBS, aspirated dry, and flash frozen in liquid nitrogen. RNA was then isolated and converted to cDNA using the Cells to cDNA kit (Ambion) according to the manufacturer's protocol. IL-1β transcript levels were then measured using Taqman primer/probe assay sets (Applied Biosystems), normalized to GAPDH using the deltaCt method, and the data expressed relative to vehicle only control. FIG. 1 summarizes the effects of compounds I-1, I-2, I-5, and I-10 on the expression of IL-1β in RAW 264.7 mouse macrophages. All four compounds were dosed at 50 μM and 100 μM.

[1] = tested on: systemic lupus erythematosus patients; details: mean dose of 1,328 mg/a day over a 1 or 2 year period; cited from earlier work
[2] = tested on: SLE-prone MRLlpr/lpr mice; details: 100 mg/kg in drinking water; cited from earlier work
[3] = tested on: (NZB X NZW)F1 mouse model of systemic lupus erythematosus; details: 200 mg/kg/day over a 6 week period; cited from earlier work

CC/C=C\C/C=C\C/C=C\C/C=C\C/C=C\C/C=C\CCC(=O)NCCNC(=O)CC/C(C)=C/Cc1c(O)c2c(c(C)c1OC)COC2=O [Compound I-1, (4Z,7Z,10Z,13Z,16Z,19Z)-N-(2((E)-6-(4-hydroxy-6-methoxy-7-methyl-3-oxo-1,3-dihydroisobenzofuran-5-yl)-4-methylhex-4-enamido)ethyl)docosa-4,7,10,13,16,19-hexaenamide]
IL-1β expression (transcript level relative to vehicle only control) (IL-1β): statistically significant decrease in IL-1β expression

CC/C=C\C/C=C\C/C=C\C/C=C\C/C=C\C/C=C\CCC(=O)NCCOCCNC(=O)CC/C(C)=C/Cc1c(O)c2c(c(C)c1OC)COC2=O [Compound I-2, (4Z,7Z,10Z,13Z,16Z,19Z)-N-(2-(2((E)-6-(4-hydroxy-6-methoxy-7-methyl-3-oxo-1,3-dihydroisobenzofuran-5-yl)-4-methylhex-4-enamido)ethoxy)ethyl)docosa-4,7,10,13,16,19-hexaenamide]
IL-1β expression (transcript level relative to vehicle only control) (IL-1β): statistically significant decrease in IL-1β expression

CC/C=C\C/C=C\C/C=C\C/C=C\C/C=C\C/C=C\CCC(=O)NCCSSCCNC(=O)CC/C(C)=C/Cc1c(O)c2c(c(C)c1OC)COC2=O [Compound I-5, (4Z,7Z,10Z,13Z,16Z,19Z)-N-(2-(2-(2-((E)-6-(4-hydroxy-6-methoxy-7-methyl-3-oxo-1,3-dihydroisobenzofuran-5-yl)-4-methylhex-4-enamido)ethyl)disulfanyl)ethyl)docosa-4,7,10,13,16,19-hexaenamide]
IL-1β expression (transcript level relative to vehicle only control) (IL-1β): statistically significant decrease in IL-1β expression

CC/C=C\C/C=C\C/C=C\C/C=C\C/C=C\CCCC(=O)NCCNC(=O)CC/C(C)=C/Cc1c(O)c2c(c(C)c1OC)COC2=O [Compound I-10, (5Z,8Z,11Z,14Z,17Z)-N-(2-((E)-6-(4-hydroxy-6-methoxy-7-methyl-3-oxo-1,3-dihydroisobenzofuran-5-yl)-4-methylhex-4-enamido)ethyl)icosa-5,8,11,14,17-pentaenamide]
IL-1β expression (transcript level relative to vehicle only control) (IL-1β): statistically significant decrease in IL-1β expression

COc1c(C)c2c(c(O)c1C/C=C(\C)CCC(=O)OCCN1CCOCC1)C(=O)OC2 [mycophenolate mofetil]
disease flares [1]: effective in reducing disease flares
survival, C3 deposition in glomeruli, albuminuria and haematuria [2]: able to prolong survival, reduce the extent of deposition of C3 in glomeruli and reduce the occurrence of albuminuria and haematuria
autoimmunity and mortality [3]: able to suppress autoimmunity and mortality
